Laboratory results: ChEMBL document CHEMBL5653615 (J Biol Chem, 2013)

How the values were obtained:
[1] = molecular target: Calcium/calmodulin-dependent protein kinase type 1B (Homo sapiens) (UniProt Q6P2M8); assay: Inhibition of human CAMK1b at 500 nM by HotSpot assay relative to control
[2] = molecular target: Tyrosine-protein kinase Fer (Homo sapiens) (UniProt P16591); assay: Inhibition of human FER at 500 nM by HotSpot assay relative to control
[3] = molecular target: T1, G protein-coupled receptor kinase 3 (Homo sapiens) (UniProt P35626); assay: Inhibition of human GRK3 at 500 nM by HotSpot assay relative to control
T1 sequence (whole entry): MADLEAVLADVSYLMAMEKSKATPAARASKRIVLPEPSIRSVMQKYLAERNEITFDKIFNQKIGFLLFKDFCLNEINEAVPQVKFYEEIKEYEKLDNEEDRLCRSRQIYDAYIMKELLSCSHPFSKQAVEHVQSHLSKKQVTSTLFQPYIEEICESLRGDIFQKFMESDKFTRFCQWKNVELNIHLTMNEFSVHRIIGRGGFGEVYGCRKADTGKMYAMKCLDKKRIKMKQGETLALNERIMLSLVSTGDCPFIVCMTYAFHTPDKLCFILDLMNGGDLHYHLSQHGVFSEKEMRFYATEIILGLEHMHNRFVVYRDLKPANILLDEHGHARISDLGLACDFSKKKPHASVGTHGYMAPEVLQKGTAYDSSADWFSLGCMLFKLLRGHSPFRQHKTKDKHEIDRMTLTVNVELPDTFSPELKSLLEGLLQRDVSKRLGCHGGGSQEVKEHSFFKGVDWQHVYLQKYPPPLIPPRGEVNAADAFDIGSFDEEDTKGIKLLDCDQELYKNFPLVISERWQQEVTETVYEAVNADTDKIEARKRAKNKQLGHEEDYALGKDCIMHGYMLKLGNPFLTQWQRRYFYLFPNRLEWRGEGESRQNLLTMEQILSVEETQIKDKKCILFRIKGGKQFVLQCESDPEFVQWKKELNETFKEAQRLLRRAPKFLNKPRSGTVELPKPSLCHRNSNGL

[4] = molecular target: T2, Serine/threonine-protein kinase haspin (Homo sapiens) (UniProt Q8TF76); assay: Inhibition of human Haspin at 500 nM by HotSpot assay relative to control
T2 sequence (whole entry): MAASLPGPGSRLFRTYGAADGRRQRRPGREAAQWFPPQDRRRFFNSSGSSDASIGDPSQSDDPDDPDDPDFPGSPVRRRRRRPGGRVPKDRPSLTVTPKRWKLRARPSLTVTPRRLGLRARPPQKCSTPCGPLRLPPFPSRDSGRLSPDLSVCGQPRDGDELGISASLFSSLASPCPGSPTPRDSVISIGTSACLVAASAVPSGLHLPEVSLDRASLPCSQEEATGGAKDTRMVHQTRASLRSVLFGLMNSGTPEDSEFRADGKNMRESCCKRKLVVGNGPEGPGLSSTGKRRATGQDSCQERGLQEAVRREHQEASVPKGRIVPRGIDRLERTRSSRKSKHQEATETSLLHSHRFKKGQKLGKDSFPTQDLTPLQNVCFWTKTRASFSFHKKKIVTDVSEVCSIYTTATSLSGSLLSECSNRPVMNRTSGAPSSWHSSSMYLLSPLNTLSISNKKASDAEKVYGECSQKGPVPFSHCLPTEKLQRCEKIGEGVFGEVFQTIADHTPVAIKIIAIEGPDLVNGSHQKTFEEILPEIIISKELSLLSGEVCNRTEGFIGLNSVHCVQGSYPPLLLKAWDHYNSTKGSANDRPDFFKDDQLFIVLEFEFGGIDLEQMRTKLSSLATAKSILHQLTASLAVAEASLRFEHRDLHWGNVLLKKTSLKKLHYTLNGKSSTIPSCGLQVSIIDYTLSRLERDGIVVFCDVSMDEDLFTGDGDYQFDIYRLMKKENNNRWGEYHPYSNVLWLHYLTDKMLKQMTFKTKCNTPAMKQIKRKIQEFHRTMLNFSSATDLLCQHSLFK

[5] = molecular target: Serine/threonine-protein kinase Nek7 (Homo sapiens) (UniProt Q8TDX7); assay: Inhibition of human NEK7 at 500 nM by HotSpot assay relative to control
[6] = molecular target: T3, cGMP-dependent protein kinase 1 (Homo sapiens) (UniProt Q13976); assay: Inhibition of human PKG1a at 500 nM by HotSpot assay relative to control
T3 sequence (whole entry): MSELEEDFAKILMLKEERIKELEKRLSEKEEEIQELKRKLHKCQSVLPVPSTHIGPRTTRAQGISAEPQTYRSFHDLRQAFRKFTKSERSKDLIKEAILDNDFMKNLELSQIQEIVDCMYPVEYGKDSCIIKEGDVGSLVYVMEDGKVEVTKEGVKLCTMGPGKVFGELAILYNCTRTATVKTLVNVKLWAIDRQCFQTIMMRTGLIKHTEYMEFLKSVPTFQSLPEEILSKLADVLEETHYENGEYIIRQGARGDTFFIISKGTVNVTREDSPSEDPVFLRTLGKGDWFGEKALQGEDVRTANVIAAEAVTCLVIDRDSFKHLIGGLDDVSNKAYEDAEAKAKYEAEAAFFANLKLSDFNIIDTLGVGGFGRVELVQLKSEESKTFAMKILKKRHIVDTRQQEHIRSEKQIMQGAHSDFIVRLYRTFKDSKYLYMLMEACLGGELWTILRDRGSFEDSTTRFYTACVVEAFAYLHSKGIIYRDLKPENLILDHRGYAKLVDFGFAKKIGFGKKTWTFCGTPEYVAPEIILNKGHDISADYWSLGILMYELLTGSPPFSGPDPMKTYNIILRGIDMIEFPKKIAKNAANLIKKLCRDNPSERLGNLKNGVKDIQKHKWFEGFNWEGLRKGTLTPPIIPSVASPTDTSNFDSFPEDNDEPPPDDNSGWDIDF

[7] = molecular target: Mitogen-activated protein kinase kinase kinase 20 (Homo sapiens) (UniProt Q9NYL2); assay: Inhibition of human MLTK at 500 nM by HotSpot assay relative to control
Sequence of Mitogen-activated protein kinase kinase kinase 20 (Homo sapiens) (Q9NYL2 2-800 limits assumed): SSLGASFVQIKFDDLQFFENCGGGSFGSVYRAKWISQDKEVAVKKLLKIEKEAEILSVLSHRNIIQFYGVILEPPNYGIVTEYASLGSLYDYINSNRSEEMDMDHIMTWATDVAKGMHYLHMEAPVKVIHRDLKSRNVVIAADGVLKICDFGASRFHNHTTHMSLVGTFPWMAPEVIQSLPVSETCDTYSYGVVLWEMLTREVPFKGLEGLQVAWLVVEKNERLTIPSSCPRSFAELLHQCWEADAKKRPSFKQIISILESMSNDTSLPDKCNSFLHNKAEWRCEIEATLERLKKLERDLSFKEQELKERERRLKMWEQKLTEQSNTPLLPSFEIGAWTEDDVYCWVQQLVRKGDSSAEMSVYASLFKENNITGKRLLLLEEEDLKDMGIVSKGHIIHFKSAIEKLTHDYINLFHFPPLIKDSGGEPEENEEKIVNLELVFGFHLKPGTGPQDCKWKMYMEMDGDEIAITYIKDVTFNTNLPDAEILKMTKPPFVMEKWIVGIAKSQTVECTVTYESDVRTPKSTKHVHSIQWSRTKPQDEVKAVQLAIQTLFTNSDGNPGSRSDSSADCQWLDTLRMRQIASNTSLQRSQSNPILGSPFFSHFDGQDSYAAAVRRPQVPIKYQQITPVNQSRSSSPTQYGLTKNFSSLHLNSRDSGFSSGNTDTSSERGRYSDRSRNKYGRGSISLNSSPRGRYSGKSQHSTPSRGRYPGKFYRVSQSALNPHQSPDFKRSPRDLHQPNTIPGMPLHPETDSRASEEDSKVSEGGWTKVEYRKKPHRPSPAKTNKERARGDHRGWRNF

Sequence of Serine/threonine-protein kinase Nek7 (Homo sapiens) (Q8TDX7 whole entry, looked up): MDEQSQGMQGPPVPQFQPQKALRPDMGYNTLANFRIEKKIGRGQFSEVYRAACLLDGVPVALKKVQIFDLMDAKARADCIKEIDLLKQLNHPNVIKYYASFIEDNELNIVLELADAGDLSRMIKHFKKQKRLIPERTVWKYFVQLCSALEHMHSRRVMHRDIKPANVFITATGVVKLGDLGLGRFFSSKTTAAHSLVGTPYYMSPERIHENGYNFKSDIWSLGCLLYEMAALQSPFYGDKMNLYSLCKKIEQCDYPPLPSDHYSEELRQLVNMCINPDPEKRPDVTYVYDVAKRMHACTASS
Sequence of Calcium/calmodulin-dependent protein kinase type 1B (Homo sapiens) (Q6P2M8 whole entry): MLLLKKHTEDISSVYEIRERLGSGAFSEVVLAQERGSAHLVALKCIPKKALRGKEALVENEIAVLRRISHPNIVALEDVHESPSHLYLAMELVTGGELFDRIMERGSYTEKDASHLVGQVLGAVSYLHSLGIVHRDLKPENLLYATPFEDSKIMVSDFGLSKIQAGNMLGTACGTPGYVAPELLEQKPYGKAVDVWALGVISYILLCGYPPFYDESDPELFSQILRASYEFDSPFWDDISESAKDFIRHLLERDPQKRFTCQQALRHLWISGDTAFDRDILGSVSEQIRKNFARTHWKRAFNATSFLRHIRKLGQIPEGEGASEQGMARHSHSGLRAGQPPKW
Sequence of Tyrosine-protein kinase Fer (Homo sapiens) (P16591 whole entry, looked up): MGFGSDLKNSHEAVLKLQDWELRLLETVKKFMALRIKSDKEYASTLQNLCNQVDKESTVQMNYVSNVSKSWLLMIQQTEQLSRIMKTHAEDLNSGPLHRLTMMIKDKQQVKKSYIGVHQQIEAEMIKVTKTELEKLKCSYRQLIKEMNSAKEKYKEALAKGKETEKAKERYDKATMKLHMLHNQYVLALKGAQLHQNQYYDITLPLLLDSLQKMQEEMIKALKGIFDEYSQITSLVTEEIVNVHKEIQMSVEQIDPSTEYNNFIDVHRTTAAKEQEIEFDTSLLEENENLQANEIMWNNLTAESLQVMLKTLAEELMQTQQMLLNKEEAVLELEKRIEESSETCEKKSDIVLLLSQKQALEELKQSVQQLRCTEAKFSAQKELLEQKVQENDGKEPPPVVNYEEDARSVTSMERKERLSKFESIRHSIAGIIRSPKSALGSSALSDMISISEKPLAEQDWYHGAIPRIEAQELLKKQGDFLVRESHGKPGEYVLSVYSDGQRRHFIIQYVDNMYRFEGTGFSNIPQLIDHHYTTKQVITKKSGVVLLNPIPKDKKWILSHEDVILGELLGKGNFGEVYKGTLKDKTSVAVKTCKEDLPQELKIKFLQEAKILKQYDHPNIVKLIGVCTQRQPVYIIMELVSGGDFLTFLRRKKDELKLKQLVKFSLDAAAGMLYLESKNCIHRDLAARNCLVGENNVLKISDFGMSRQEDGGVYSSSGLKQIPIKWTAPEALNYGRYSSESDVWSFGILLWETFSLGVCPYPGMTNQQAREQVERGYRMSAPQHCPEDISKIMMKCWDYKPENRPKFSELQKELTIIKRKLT

## Nc1n[nH]c2nnc(-c3c(-c4ccccc4)nn4ccccc34)cc12
[1]
  inhibition: 0.39%
[2]
  inhibition: 9.19%
[3]
  inhibition: -0.84%
[4]
  inhibition: 2.91%
[5]
  inhibition: 4.72%
[6]
  inhibition: 6.39%
[7]
  inhibition: -1.29%

## Oc1n[nH]c2nnc(-c3c(-c4ccccc4)nn4ccccc34)cc12
[1]
  inhibition: -0.91%
[2]
  inhibition: 17.4%
[3]
  inhibition: -1.47%
[4]
  inhibition: 11.6%
[5]
  inhibition: 3.15%
[6]
  inhibition: -5.37%
[7]
  inhibition: -0.11%
